ChEMBL document CHEMBL1138961, “Highly selective and potent agonists of sphingosine-1-phosphate 1 (S1P1) receptor” (Bioorg Med Chem Lett, 2006)
Activity calls are given as the source filed them. The rule behind the calls is not given here.

What was measured:
[1] = species on record: Homo sapiens; test: Selectivity for S1P1 receptor over S1P4 receptor
[2] = molecular target: T1, Sphingosine 1-phosphate receptor 1 (Homo sapiens, UniProt P21453); test: Agonist activity at S1P1 receptor assessed as induction of [35S]GTP-gamma-S binding; type: functional
[3] = molecular target: T2, Sphingosine 1-phosphate receptor 5 (Homo sapiens, UniProt Q9H228); test: Agonist activity at S1P5 receptor assessed as induction of [35S]GTP-gamma-S binding; type: functional
[4] = species on record: Homo sapiens; test: Selectivity for S1P1 receptor over S1P2 receptor
[5] = molecular target: T3, Sphingosine 1-phosphate receptor 3 (Homo sapiens, UniProt Q99500); test: Agonist activity at S1P3 receptor assessed as induction of [35S]GTP-gamma-S binding; type: functional
[6] = species on record: Homo sapiens; test: Selectivity for S1P1 receptor over S1P5 receptor
[7] = molecular target: T3, Sphingosine 1-phosphate receptor 3; test: Inhibition of S1P3 receptor at 10 uM
[8] = molecular target: T2, Sphingosine 1-phosphate receptor 5; test: Inhibition of S1P5 receptor at 10 uM
[9] = species on record: Homo sapiens; test: Selectivity for S1P1 receptor over S1P3 receptor
[10] = Oral bioavailability in rat; type: ADME, organism-based; settings: in vivo
[11] = test system: Mus musculus; test: Lowering of lymphocytes in mouse at 0.3 mg/kg, po; type: functional, organism-based; design: dose 0.3 mg/kg
[12] = Half life in rat; type: ADME, organism-based; settings: in vivo
[13] = molecular target: T1, Sphingosine 1-phosphate receptor 1; test: Inhibition of S1P1 receptor at 10 uM

T1 sequence (P21453 whole entry): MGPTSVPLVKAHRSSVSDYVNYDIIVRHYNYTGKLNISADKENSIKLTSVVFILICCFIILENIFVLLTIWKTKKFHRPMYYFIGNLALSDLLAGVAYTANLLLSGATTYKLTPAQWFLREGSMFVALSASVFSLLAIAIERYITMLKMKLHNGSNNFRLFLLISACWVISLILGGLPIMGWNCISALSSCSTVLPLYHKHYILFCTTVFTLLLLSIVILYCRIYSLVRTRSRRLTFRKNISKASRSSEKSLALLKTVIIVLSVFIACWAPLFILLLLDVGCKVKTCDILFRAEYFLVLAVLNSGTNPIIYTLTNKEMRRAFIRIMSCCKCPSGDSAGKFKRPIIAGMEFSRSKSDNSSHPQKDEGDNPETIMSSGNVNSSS
T3 sequence (Q99500 whole entry): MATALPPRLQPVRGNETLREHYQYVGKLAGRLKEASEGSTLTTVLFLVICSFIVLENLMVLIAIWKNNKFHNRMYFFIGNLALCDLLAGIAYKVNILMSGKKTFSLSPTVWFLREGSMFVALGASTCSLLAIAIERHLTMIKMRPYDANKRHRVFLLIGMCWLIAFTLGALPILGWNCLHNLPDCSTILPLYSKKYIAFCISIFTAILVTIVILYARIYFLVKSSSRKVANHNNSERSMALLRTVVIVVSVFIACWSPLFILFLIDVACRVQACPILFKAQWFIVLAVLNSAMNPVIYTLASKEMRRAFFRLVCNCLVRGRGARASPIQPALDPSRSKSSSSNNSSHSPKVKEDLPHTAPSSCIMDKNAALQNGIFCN
T2 sequence (Q9H228 whole entry): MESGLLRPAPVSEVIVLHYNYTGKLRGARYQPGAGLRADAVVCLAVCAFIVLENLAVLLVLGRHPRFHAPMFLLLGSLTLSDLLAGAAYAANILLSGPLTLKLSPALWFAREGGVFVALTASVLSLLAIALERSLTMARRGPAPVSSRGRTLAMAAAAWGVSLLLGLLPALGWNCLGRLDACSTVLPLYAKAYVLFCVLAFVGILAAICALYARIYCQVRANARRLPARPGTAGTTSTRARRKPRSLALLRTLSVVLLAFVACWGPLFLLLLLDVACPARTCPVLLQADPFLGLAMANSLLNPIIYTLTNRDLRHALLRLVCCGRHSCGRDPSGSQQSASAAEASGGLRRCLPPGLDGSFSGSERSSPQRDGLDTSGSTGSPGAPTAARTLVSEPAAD

| Selectivity ratio [1] | EC50 [2] [nM] | EC50 [3] [nM] | Selectivity ratio [4] | EC50 [5] [nM] | Selectivity ratio [6] | SMILES | further results |
| --- | --- | --- | --- | --- | --- | --- | --- |
| > 1000 | > 10000 | > 10000 | > 1000 | > 10000 |  | Cc1cc(CCC(=O)O)ccc1-c1nnc(-c2ccc(OC(C)C)c(C#N)c2)n1C |  |
| > 1000 | 94 |  | > 1000 |  | 110 | CC(=O)Oc1ccc(-c2nnc(-c3ccc(CCC(=O)O)cc3C)s2)cc1C#N |  |
| > 1000 | 0.6 |  | > 1000 |  | 400 | Cc1cc(CCC(=O)O)ccc1-c1nnc(-c2ccc(OCC(F)(F)F)c(C#N)c2)s1 |  |
| > 1000 | 1.1 |  | > 1000 |  | 230 | Cc1cc(CCC(=O)O)ccc1-c1nnc(-c2ccc(OCC(F)F)c(C#N)c2)s1 |  |
| > 1000 | 1.6 | 43 | > 1000 | > 10000 |  | Cc1cc(CCC(=O)O)ccc1-c1nnn(-c2ccc(OC(C)C)c(C#N)c2)n1 |  |
| > 1000 | 0.79 |  | > 1000 |  | 170 | Cc1cc(CCC(=O)O)ccc1-c1nnc(-c2ccc(OC3CCC3)c(C#N)c2)s1 |  |
| > 1000 | 0.93 | 220 | > 1000 | > 10000 |  | Cc1cc(CCC(=O)O)ccc1-c1ccc(-c2ccc(OC(C)C)c(C#N)c2)s1 |  |
| > 1000 | 2.1 |  | > 1000 |  | 480 | CCOc1ccc(-c2nnc(-c3ccc(CCC(=O)O)cc3C)s2)cc1C#N |  |
| > 1000 | 1.1 | 460 | > 1000 | > 10000 |  | Cc1cc(CCC(=O)O)ccc1-c1nnc(-c2ccc(OC(C)C)c(C#N)c2)o1 |  |
| > 1000 | > 10000 | > 10000 | > 1000 | > 10000 |  | Cc1cc(CCC(=O)O)ccc1-c1ccc(-c2ccc(OC(C)C)c(C#N)c2)o1 |  |
| > 1000 | 0.28 |  | > 1000 |  | 120 | CCC(C)Oc1ccc(-c2nnc(-c3ccc(CCC(=O)O)cc3C)s2)cc1C#N (stereo not drawn) |  |
| > 1000 | 0.98 | 150 | > 1000 | > 10000 |  | Cc1cc(CCC(=O)O)ccc1-n1nnc(-c2ccc(OC(C)C)c(C#N)c2)n1 |  |
| > 1000 | 0.1 | 13 | > 1000 | 110 |  | Cc1cc(CCC(=O)O)ccc1-c1noc(-c2ccc(OC(C)C)c(C#N)c2)n1 |  |
| > 1000 | 9.5 |  | > 1000 |  | > 100 | Cc1cc(CCC(=O)O)ccc1-c1nnc(-c2ccc(OCCF)c(C#N)c2)s1 |  |
| > 1000 | 0.23 |  | > 1000 |  | 390 | Cc1cc(CCC(=O)O)ccc1-c1nnc(-c2ccc(OC(CF)CF)c(C#N)c2)s1 |  |
| > 1000 | 3.4 |  | > 1000 |  | 110 | CCCOc1ccc(-c2nnc(-c3ccc(CCC(=O)O)cc3C)s2)cc1C#N |  |
| > 1000 | 19 |  | > 1000 |  |  | Cc1cc(CCC(=O)O)ccc1-c1nnc(-c2cnc(OC(C)C)c(Cl)c2)o1 | inhibition [7]: 82%; inhibition [8]: 44% |
| > 1000 | 0.61 |  | > 1000 |  | 230 | Cc1cc(CCC(=O)O)ccc1-c1nnc(-c2ccc(OCC3CC3)c(C#N)c2)s1 |  |
| > 1000 | 5.1 | > 10000 | > 1000 | > 10000 |  | Cc1cc(CCC(=O)O)ccc1-c1ncc(-c2ccc(OC(C)C)c(C#N)c2)o1 |  |
| > 1000 | > 3600 | > 10000 | > 1000 | > 10000 |  | Cc1cc(CCC(=O)O)ccc1-c1nc(C)c(-c2ccc(OC(C)C)c(C#N)c2)s1 |  |
| > 1000 | 1000 |  | > 1000 |  |  | Cc1cc(CCC(=O)O)ccc1-c1coc(-c2cnc(OC(C)C)c(Cl)c2)n1 | inhibition [7]: 8%; inhibition [8]: 0% |
| > 1000 | 0.18 | 120 | > 1000 | > 10000 | > 600 | Cc1cc(CCC(=O)O)ccc1-c1ncc(-c2ccc(OC(C)C)c(C#N)c2)s1 | Selectivity ratio [9]: > 10000; bioavailability [10]: 39%; Activity [11]: Active; half-life [12]: < 1 h |

| Selectivity ratio [1] | EC50 [2] [nM] | EC50 [3] [nM] | Selectivity ratio [4] | EC50 [5] [nM] | Selectivity ratio [6] | SMILES | further results |
| --- | --- | --- | --- | --- | --- | --- | --- |
| > 1000 |  |  | > 1000 |  |  | Cc1cc(CCC(=O)O)ccc1-c1csc(-c2cnc(OC(C)C)c(Cl)c2)n1 | inhibition [13]: 30%; inhibition [7]: 0%; inhibition [8]: 6% |
| > 1000 | 1200 | 3200 | > 1000 | > 10000 |  | Cc1cc(CCC(=O)O)ccc1-c1csc(-c2ccc(OC(C)C)c(C#N)c2)c1 |  |
| > 1000 | 290 | 3200 | > 1000 | > 10000 |  | Cc1cc(CCC(=O)O)ccc1-c1cc(-c2ccc(OC(C)C)c(C#N)c2)cs1 |  |
| > 1000 | 38 |  | > 1000 |  | 2 | Cc1cc(CCC(=O)O)ccc1-c1nnc(-c2ccc(OC(C(F)(F)F)C(F)(F)F)c(C#N)c2)s1 |  |
| > 1000 | 360 |  | > 1000 |  | 28 | Cc1cc(CCC(=O)O)ccc1-c1nnc(-c2ccc(OCC(=O)O)c(C#N)c2)s1 |  |
| > 1000 | 1.9 |  | > 1000 |  | 110 | Cc1cc(CCC(=O)O)ccc1-c1nnc(-c2ccc(-c3cccs3)c(C#N)c2)s1 |  |
| > 1000 | 14 | 200 | > 1000 | > 10000 |  | Cc1cc(CCC(=O)O)ccc1-c1cnc(-c2ccc(OC(C)C)c(C#N)c2)s1 |  |
| > 1000 | 0.73 | 950 | > 1000 | 950 |  | Cc1cc(CCC(=O)O)ccc1-c1noc(-c2cnc(OC(C)C)c(Cl)c2)n1 |  |
| > 1000 | 0.15 | 73 | > 1000 | 940 |  | Cc1cc(CCC(=O)O)ccc1-c1noc(-c2ccc(OC(C)C)c(Cl)c2)n1 |  |
| > 1000 | 0.16 |  | > 1000 |  | 320 | Cc1cc(CCC(=O)O)ccc1-c1nnc(-c2ccc(CC(C)C)c(C#N)c2)s1 |  |
| > 1000 | 0.2 |  | > 1000 |  | 210 | Cc1cc(CCC(=O)O)ccc1-c1nnc(-c2ccc(OC(C)C)c(C#N)c2)s1 |  |
|  | 380 | > 10000 |  | > 10000 |  | Cc1cc(CCC(=O)O)ccc1-c1nnc(-c2ccc(OC(C)C)c(C#N)c2)[nH]1 |  |
| > 1000 | > 1000 |  | > 1000 |  |  | Cc1cc(CCC(=O)O)ccc1-c1nnc(-c2cccc(C#N)c2)s1 |  |
| > 1000 | 2.8 |  | > 1000 |  | 200 | Cc1cc(CCC(=O)O)ccc1-c1nnc(-c2ccc(OCC(C)C)c(C#N)c2)s1 |  |
| > 1000 | 2.1 | 1300 | > 1000 |  |  | Cc1cc(CCC(=O)O)ccc1-c1nnc(-c2cnc(OC(C)C)c(Cl)c2)s1 | inhibition [7]: 36% |
| > 1000 | > 10000 | > 10000 | > 1000 | > 10000 |  | Cc1cc(CCC(=O)O)ccc1-c1ccc(-c2ccc(OC(C)C)c(C#N)c2)n1C |  |
| > 1000 | 7.7 |  | > 1000 |  | 30 | Cc1cc(CCC(=O)O)ccc1-c1nnc(-c2ccc(OCCC(F)(F)F)c(C#N)c2)s1 |  |
| > 1000 | 45 |  | > 1000 |  | 220 | Cc1cc(CCC(=O)O)ccc1-c1nnc(-c2ccc(OCC#N)c(C#N)c2)s1 |  |
| > 1000 | 570 |  | > 1000 |  | 18 | Cc1cc(CCC(=O)O)ccc1-c1nnc(-c2ccc(F)c(C#N)c2)s1 |  |
| > 1000 |  |  | > 1000 |  |  | Cc1cc(CCC(=O)O)ccc1-c1nc(-c2ccc(OC(C)C)c(C#N)c2)n[nH]1 |  |
| > 1000 | 97 |  | > 1000 |  | > 100 | COc1ccc(-c2nnc(-c3ccc(CCC(=O)O)cc3C)s2)cc1C#N |  |
